Experiment [1] deals with T1, calcium-calmodulin dependent phosphodiesterase (CaM-PDE) (Bos taurus, UniProt P14100).
T1 construct: partially pure enzyme obtained from bovine aorta homogenates; from tissue; host or cells: bovine aorta homogenates
The experiment is described as follows: Phosphodiesterase Inhibition In Vitro: CaM-PDE. To be noted: 1 μM 3H-cGMP substrate, pH 7.5, 25 minutes, room temperature, with calmodulin and CaCl2. Format: biochemical, bovine (aorta). The protocol:
(§1) Compounds are evaluated for inhibition of two phosphodiesterase enzymes which hydrolyze cyclic guanosine monophosphate (cGMP). The first enzyme, calcium-calmodulin dependent phosphodiesterase (CaM-PDE), is a partially pure enzyme obtained from bovine aorta homogenates and purified by DEAE-cellulose and calmodulin-affinity chromatography. The enzyme is activated several fold by Ca-calmodulin and is selective for cGMP, although it will also hydrolyze cAMP. […] Bovine aorta homogenates and primary cultures of bovine aortic endothelial and vascular smooth muscle cells contain an enzyme with properties very similar to the lung isozyme.
(§2) The enzyme assay is performed using a Biomek Automated Pipetting Station. Compounds are dissolved in distilled water or DMSO and diluted with 10% DMSO.
(§3) Assays contain the following components:
(§4) 50 mM Tris-HCl, pH 7.5, 5 mM magnesium chloride
(§5) 0.5 mg/ml snake venom alkaline phosphatase
0.1 μM Calmodulin and 1 mM CaCl2 (for CaM-PDE only)
(§6) Assays are initiated by addition of enzyme and stopped by addition of 10 mM isobutylmethylxanthine, a general phosphodiesterase inhibitor. Assays are performed for 25 minutes at room temperature to achieve 5-10% hydrolysis of substrate. The negatively charged substrates are then separated from guanosine by binding to an anion-exchange resin (AG1-X8) and centrifugation or filtration, and the product is quantitated by scintillation counting in counts per minute (cpm) of the remaining soluble material. Percent inhibition is calculated as follows:
(§7) % Inhibition=100-[(cpm compound-blank)/(cpm control-blank)×100]
(§8) Activity is expresssed as the IC50 value, i.e. the concentration required to inhibit activity of enzyme by 50 per cent.

Experiment [2] deals with cGMP phosphodiesterase (cGMP-PDE) (Bos taurus, UniProt Q28156). Description: biochemical. Set-up: species or system bovine (lung). The conditions noted are these: 1 μM 3H-cGMP substrate, pH 7.5, 25 minutes, room temperature. The protocol: as §1, §2, §3, §4, §5, §6, §7, §8
In experiment [3] the test system is spontaneously hypertensive rats (SHR). The experiment is described as follows: Antihypertensive Activity in Rats (conscious SHR, oral). To be noted: fasted SHR males. The class given is in vivo, rat (spontaneously hypertensive. The source says: The present compounds are useful in inhibiting the phosphodiesterase enzymes. These phosphodiesterase enzymes are known to hydrolyze cGMP in smooth muscle. High levels of cGMP are associated with the relaxation of vascular smooth muscle, with a consequent subsequent reduction in blood pressure. Thus, it is believed that by inhibiting these phosphodiesterase enzymes, cGMP levels in muscle will be either maintained or increased with a subsequent reduction in blood pressure. In vivo antihypertensive activity is determined orally in spontaneously hypertensive rats (SHR). The ability of the compounds of the present invention to lower blood pressure can be assessed in vivo in conscious spontaneously hypertensive rats (SHR). SHR males are purchased from Taconic Farms, Germantown, N.Y. and are approximately 16-18 weeks old when anesthetized with ether. The caudal (ventral tail) artery is cannulated with polyethylene tubing (PE50) and blood pressure and heart rate are recorded as described by Baum, T. et. al, J. Cardiovasc. Pharmacol. Vol 5, pp. 655-667, (1983). Rats are placed into plastic cylindrical cages where they rapidly recover consciousness. Blood pressure and heart rate are allowed to stabilize for approximately 90 minutes prior to compound administration. Compounds are administered orally as solutions or suspensions in 0.4% aqueous methylcellulose vehicle via a feeding needle. […] Activity is expressed as the fall in mean blood pressure (MBP) in millimeters of mercury (mm Hg). Compound-induced changes are compared with the changes in an appropriate placebo group.

Take `CN1C(=O)c2c(ncn2Cc2ccccc2)N2C1=N[C@@H]1CCC[C@@H]12` (relative stereo) [Example 1, cis-5,6a,7,8,9,9a-Hexahydro-5-methyl-3-(phenylmethyl)cyclopent[4,5]imidazo[2,1-b]purin-4-one]: the results for the IC50 in experiment [1] and in experiment [2] were 0.3 µM and 0.4 µM, respectively. The “SHR Antihypertensive Fall in MBP” value in experiment [3] (Dose 25 mpk) is given as 30 mmHg.

On to `CN1C(=O)c2c(ncn2Cc2ccccc2)N2C1=N[C@@H]1CCCC[C@@H]12` (relative stereo) [Example 3, cis-6a,7,8,9,10,10a-Hexahydro-5-methyl-3-(phenylmethyl)-3H-benzimidazo[2,1-b]purin-4(5H)-one], for which the IC50 in experiment [1] was 0.1 µM; in experiment [2] it was 1.4 µM. The “SHR Antihypertensive Fall in MBP” value in experiment [3] (Dose 25 mpk) amounted to 22 mmHg.

On to `Cc1nc2c(n1Cc1ccccc1)C(=O)N(C)C1=N[C@@H]3CCC[C@@H]3N12` (relative stereo) [Example 9, cis-5,6a,7,8,9,9a-Hexahydro-2,5-dimethyl-3-(phenylmethyl)cyclopent[4,5]imidazo[2,1-b]purin-4-(3H)-one], for which the IC50 in experiment [1] amounted to 0.6 µM. In addition, in experiment [3] (Dose 25 mpk), the “SHR Antihypertensive Fall in MBP” value was determined as 36 mmHg.

On to `Cc1nc2c(n1Cc1ccccc1)C(=O)N(C)C1=N[C@@H]3CCCC[C@@H]3N12` (relative stereo) [Example 12, cis-6a,7,8,9,10,10a-Hexahydro-2,5-dimethyl-3-(phenylmethyl)-3H-benzimidazo[2,1-b]purin-4(5H)-one], for which the IC50 in experiment [1] and in experiment [2] was 0.2 µM in each case. Also, the “SHR Antihypertensive Fall in MBP” value in experiment [3] (Dose 25 mpk) came out at 38 mmHg.

For `Cc1nc2c(n1Cc1ccccc1)C(=O)N(C)C1=N[C@@H]3CCCCC[C@@H]3N12` (relative stereo) [Example 14, cis-5,6a,7,8,9,9a-Hexahydro-2,5-dimethyl-3-(phenylmethyl)cyclohept[6,7]imidazo[2,1-b]purin-4(3H)-one], the figures for the IC50 in experiment [1] and in experiment [2] were 0.3 µM and 0.9 µM, respectively. For the same compound, in experiment [3] (Dose 25 mpk), the “SHR Antihypertensive Fall in MBP” value is 20 mmHg.

Take `CCc1nc2c(n1Cc1ccccc1)C(=O)N(C)C1=N[C@@H]3CCCC[C@@H]3N12` (relative stereo) [Example 16, cis-6a,7,8,9,10,10a-Hexahydro-5-methyl-2-ethyl-3-(phenylmethyl)-3H-benzimidazo[2,1-b]purin-4(5H)-one]: the IC50 in experiment [1] came to 0.1 µM; in experiment [2], 3 µM. The “SHR Antihypertensive Fall in MBP” value in experiment [3] (Dose 25 mpk) is 23 mmHg.

In the case of `CN1C(=S)c2c(ncn2Cc2ccccc2)N2C1=N[C@@H]1CCC[C@@H]12` (relative stereo) [Example 20, cis-5,6a,7,8,9,9a-Hexahydro-5-methyl-3-(phenylmethyl)cyclopenta[4,5]imidazo[2,1-b]purin-4(3H)-thione], the IC50 turned out to be 0.04 µM in experiment [1] and 0.4 µM in experiment [2]. Also, the “SHR Antihypertensive Fall in MBP” value in experiment [3] (Dose 25 mpk) turned out to be 6 mmHg.

In the case of `CN1C(=O)c2c(ncn2Cc2ccc(Cl)cc2)N2C1=N[C@@H]1CCC[C@@H]12` (relative stereo) [Example 21, cis-5,6a,7,8,9,9a-Hexahydro-5-methyl-3-(4-chlorophenylmethyl)cyclopenta[4,5]imidazo[2,1-b]purin-4(3H)-one], the IC50 in experiment [1] stood at 3.3 µM; in experiment [2], 0.4 µM. Also, the “SHR Antihypertensive Fall in MBP” value in experiment [3] (Dose 25 mpk) turned out to be 20 mmHg.

For `CN1C(=O)c2c(ncn2CC2CCCCC2)N2C1=N[C@@H]1CCC[C@@H]12` (relative stereo) [Example 22, cis-5,6a,7,8,9,9a-Hexahydro-5-methyl-3-(cyclohexylmethyl)cyclopent[4,5]imidazo[2,1-b]purin-4(3H)-one], the IC50 in experiment [1] and in experiment [2] was 0.2 µM each time. Moreover, in experiment [3] (Dose 25 mpk), the “SHR Antihypertensive Fall in MBP” value is 15 mmHg.

Regarding `COC(=O)c1nc2c(n1Cc1ccccc1)C(=O)N(C)C1=N[C@@H]3CCC[C@@H]3N12` (relative stereo) [Example 28, cis-3,4,5,6a,7,8,9,9a-Octahydro-5-methyl-4-oxo-3-(phenylmethyl)cyclopent[4,5]imidazo[2,1-b]purin-2-carboxylic acid, methyl ester], the IC50 in experiment [1] and in experiment [2] was 0.2 µM throughout. For the same compound, in experiment [3] (Dose 25 mpk), the “SHR Antihypertensive Fall in MBP” value turned out to be 19 mmHg.

With `Cc1nc2c(n1Cc1ccccc1)C(=O)N(C)C1=NC34CCCC3CCC4N12` (single isomer, unassigned; (+)) [Example 39, (+) 6a,7,8,9,9a,10,11,11a-Octahydro-2,5-dimethyl-3-phenylmethyl-3H-pentaleno[6a',1':4,5]imidazo[2,1-b]purin-4(5H)-one], the IC50 in experiment [1] and in experiment [2] was 0.1 µM throughout. In experiment [3] (Dose 25 mpk), the “SHR Antihypertensive Fall in MBP” value is 40 mmHg.

Turning to `Cc1nc2c([nH]1)C(=O)N(C)C1=NC34CCCC3CCC4N12.Cl` (single isomer, unassigned; (+)) [Example 41a, (+)-6a,7,8,9,9a,10,11,11a-Octahydro-2,5-dimethyl-3H-pentaleno[6a',1':4,5]imidazo[2,1-b]purin-4(5H)-one, hydrochloride], the IC50 in experiment [1] came to 0.2 µM; in experiment [2], 0.1 µM. Moreover, the “SHR Antihypertensive Fall in MBP” value in experiment [3] (Dose 5 mpk) amounted to 45 mmHg; in experiment [3] (Dose 10 mpk), 52 mmHg; in experiment [3] (Dose 25 mpk), 67 mmHg.

`Cc1nc2c(n1Cc1ccccc1)C(=O)N(C)C1=N[C@@H]3CCC[C@@H]3N12` [Example 10, 5,6a(R),7,8,9,9a(S)-Hexahydro-2,5-dimethyl-3-(phenylmethyl)cyclopent[4,5]imidazo[2,1-b]purin-4(3H)-one]: the IC50 in experiment [1] was 0.3 µM. Also, the “SHR Antihypertensive Fall in MBP” value in experiment [3] (Dose 25 mpk) is recorded as 45 mmHg.

For the compound `Cc1nc2c([nH]1)C(=O)N(C)C1=N[C@@H]3CCC[C@@H]3N12` [Example 19a, cis-5,6a(R),7,8,9,9a(S)-Hexahydro-2,5-di-methylcyclopent[4,5]imidazo[2,1-b]purin-4(3H)-one], the IC50 in experiment [1] was determined as 3 µM; in experiment [2], 0.3 µM. In addition, the “SHR Antihypertensive Fall in MBP” value in experiment [3] (Dose 25 mpk) stood at 40 mmHg.

In the case of `CN1C(=O)c2c(ncn2Cc2ccccc2)N2CC3(CCCC3)N=C12` [Example 34, 5'-Methyl-3'-(phenylmethyl)-spiro[cyclopentane-1,7'(8'H)-(3'H)-imidazo[2,1-b]purin]-4'(5'H)one], the IC50 in experiment [1] and in experiment [2] was 0.1 µM in each case. In addition, the “SHR Antihypertensive Fall in MBP” value in experiment [3] (Dose 25 mpk) stood at 40 mmHg.

In the case of `Cc1nc2c(n1Cc1ccccc1)C(=O)N(C)C1=NC3(CCCC3)CN12` [Example 34a, 2',5'-Dimethyl-3'-(phenylmethyl)spiro[cyclopentane-1,7'(8'H)-(3'H)-imidazo[2,1-b]purin]-4'(5'H)one], the figures for the IC50 in experiment [1] and in experiment [2] were 0.3 µM and 0.8 µM, respectively. In addition, the “SHR Antihypertensive Fall in MBP” value in experiment [3] (Dose 25 mpk) was found to be 58 mmHg.

Take `CN1C(=O)c2c(ncn2Cc2ccccc2)N2C1=N[C@@H]1CCC[C@@H]12` [Example 35, cis-5,6a(R),7,8,9,9a(S)-Hexahydro-5-methyl-3-(phenylmethyl)cyclopent[4,5]imidazo[2,1-b]purin-4(3H)one]: the values for the IC50 in experiment [1] and in experiment [2] were 0.4 µM and 0.3 µM, respectively. Also, the “SHR Antihypertensive Fall in MBP” value in experiment [3] (Dose 25 mpk) stood at 41 mmHg.

Broadly, the IC50 is the concentration needed to halve the response being measured.

Values taken from patent US5393755A, “Polycyclic guanine derivatives” (priority 1992, dated 1995).
